Experimental findings from BindingDB's records for PubMed 8100350 (University of Pennsylvania, 1993) are described below.

*1 amine or outer side, *2 acyl side, *3 side chain or, on linkers, in order; H or OH if unused. Where a SMILES comes first, the peptide text is derived from it. Bridges are numbered along the chain shown (N, C = ends). [ ]: non-standard residue; d: D form. The star is where a group is joined. ξ: configuration not given here. Phe(4-NO2) = N[C@@H](Cc1ccc([N+](=O)[O-])cc1)C(=O)O; NH(1-naphthylmethyl) = c1ccc2c(CN*)cccc2c1; Phe(4-Cl) = N[C@@H](Cc1ccc(Cl)cc1)C(=O)O; dPhe(4-Cl) = N[C@H](Cc1ccc(Cl)cc1)C(=O)O; 2Nal = N[C@@H](Cc1ccc2ccccc2c1)C(=O)O; d2Nal = N[C@H](Cc1ccc2ccccc2c1)C(=O)O; dThr(3ξ) = CC(O)[C@@H](N)C(=O)O; X1 = O=C(C(N[*:1])S[*:3])[*:2]; ξF = NC(Cc1ccccc1)C(=O)O; Abu = CC[C@H](N)C(=O)O; X2 = CC(O)[C@H](CO)N*; Ahp = NCCCCCCC(=O)O; Ahx = NCCCCCC(=O)O; Bn = c1ccc(C*)cc1; ξC = NC(CS)C(=O)O; Mpa = O=C(O)CCS Some results are limits rather than exact numbers.

The target in test [1] is Somatostatin receptor type 2 (Mus musculus, UniProt P30875).
Sequence of Somatostatin receptor type 2 (P30875 whole entry): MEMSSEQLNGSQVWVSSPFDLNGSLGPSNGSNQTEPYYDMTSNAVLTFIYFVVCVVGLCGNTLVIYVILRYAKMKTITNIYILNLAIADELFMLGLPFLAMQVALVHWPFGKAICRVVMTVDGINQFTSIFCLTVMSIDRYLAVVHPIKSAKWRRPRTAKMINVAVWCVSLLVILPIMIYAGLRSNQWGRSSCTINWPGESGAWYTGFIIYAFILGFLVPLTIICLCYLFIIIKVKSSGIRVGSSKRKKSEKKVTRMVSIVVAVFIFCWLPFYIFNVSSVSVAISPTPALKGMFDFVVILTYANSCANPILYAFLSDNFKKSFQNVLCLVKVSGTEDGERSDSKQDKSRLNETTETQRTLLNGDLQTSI
Test [2] has as its target Somatostatin receptor type 3 (Mus musculus, UniProt P30935).
In test [3] the target is Somatostatin receptor type 1 (Homo sapiens, UniProt P30872).
Sequence of Somatostatin receptor type 1 (P30872 whole entry): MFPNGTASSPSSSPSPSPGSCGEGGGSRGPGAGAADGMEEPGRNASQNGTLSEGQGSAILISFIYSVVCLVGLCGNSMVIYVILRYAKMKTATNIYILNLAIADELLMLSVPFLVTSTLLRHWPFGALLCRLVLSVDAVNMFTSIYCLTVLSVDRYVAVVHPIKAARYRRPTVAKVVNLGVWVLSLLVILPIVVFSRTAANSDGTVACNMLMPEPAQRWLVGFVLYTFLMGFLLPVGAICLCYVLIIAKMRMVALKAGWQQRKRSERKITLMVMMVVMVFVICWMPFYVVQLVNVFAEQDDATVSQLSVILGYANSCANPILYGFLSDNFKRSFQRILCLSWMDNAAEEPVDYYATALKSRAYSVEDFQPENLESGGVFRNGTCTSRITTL

Sequence of Somatostatin receptor type 3 (P30935 whole entry): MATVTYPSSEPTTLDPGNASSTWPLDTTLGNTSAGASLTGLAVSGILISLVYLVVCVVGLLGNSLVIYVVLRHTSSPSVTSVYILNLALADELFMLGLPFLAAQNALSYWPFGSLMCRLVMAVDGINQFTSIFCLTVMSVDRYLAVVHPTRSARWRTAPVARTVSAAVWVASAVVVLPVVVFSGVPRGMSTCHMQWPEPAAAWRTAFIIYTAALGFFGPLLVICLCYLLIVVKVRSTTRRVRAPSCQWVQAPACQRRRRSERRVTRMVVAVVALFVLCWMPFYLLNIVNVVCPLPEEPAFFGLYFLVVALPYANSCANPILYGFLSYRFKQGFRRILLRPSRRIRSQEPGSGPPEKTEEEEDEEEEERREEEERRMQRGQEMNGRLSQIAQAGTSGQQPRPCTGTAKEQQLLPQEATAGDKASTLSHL

In general, Ki refers to the equilibrium dissociation constant of an inhibitor or competing ligand from its target. Read a high Ki as lower affinity. For `C[C@H](N)C(=O)NCC(=O)N[C@H]1CSSC[C@@H](C(=O)O)NC(=O)[C@H](CO)NC(=O)[C@H]([C@@H](C)O)NC(=O)[C@H](Cc2ccccc2)NC(=O)[C@H]([C@@H](C)O)NC(=O)[C@H](CCCCN)NC(=O)[C@@H](Cc2c[nH]c3ccccc23)NC(=O)[C@H](Cc2ccccc2)NC(=O)[C@H](Cc2ccccc2)NC(=O)[C@H](CC(N)=O)NC(=O)[C@H](CCCCN)NC1=O` [SRIF-D-Trp8], the Ki in test [1] is 0.005 nM.
For `CC(O)C1NC(=O)C(CCCCN)NC(=O)C(Cc2c[nH]c3ccccc23)NC(=O)C(Cc2ccc(O)cc2)NC(=O)C(NC(=O)C(N)Cc2ccccc2)CSSCC(C(=O)NCc2cccc3ccccc23)NC1=O` (stereo not given) [BIM 23060] (H-FCYWKTC-{NH(1-naphthylmethyl)}; disulfide 2-7; configuration not given here), the Ki is 17.4 nM in test [2], 1000 nM in test [3] and 0.01 nM in test [1].
For `CC[C@H](NC(=O)[C@@H](N)Cc1ccc(Cl)cc1)C(=O)N[C@@H](Cc1ccc(O)cc1)C(=O)N[C@H](Cc1c[nH]c2ccccc12)C(=O)N[C@@H](CCCCN)C(=O)N[C@H](C(=O)N[C@@H](C)C(=O)N[C@H](Cc1ccccc1)C(N)=O)C(C)C` [BIM 23067] (H-[Phe(4-Cl)][Abu]Y[dW]KVA[dF]-NH2), the Ki in test [2] came out at 123 nM; in test [1], 135 nM.
For `CC(C)[C@@H]1NC(=O)[C@H](CCCCN)NC(=O)[C@@H](Cc2c[nH]c3ccccc23)NC(=O)[C@H](Cc2ccc(O)cc2)NC(=O)[C@H](C)N(C)C(=O)[C@H](Cc2ccccc2)NC1=O` [CAS_3086456], the figures for the Ki in test [2] and in test [1] were 12 nM and 0.18 nM, respectively.
`CC(C)[C@H](NC(=O)[C@H](CCCCN)NC(=O)[C@@H](Cc1c[nH]c2ccccc12)NC(=O)[C@H](Cc1ccc(O)cc1)NC(=O)[C@H](Cc1ccc(Cl)cc1)NC(=O)[C@@H](N)Cc1ccccc1)C(=O)N[C@@H](Cc1ccccc1)C(=O)N[C@H](C)C(N)=O` [BIM 23064] (H-F[Phe(4-Cl)]Y[dW]KVF[dA]-NH2): the Ki in test [2] came to 34 nM; in test [3], 1000 nM; in test [1] it was 948 nM.
As for `CC(C)[C@H](NC(=O)[C@H](CCCCN)NC(=O)[C@@H](Cc1c[nH]c2ccccc12)NC(=O)[C@H](Cc1ccc(O)cc1)NC(=O)[C@H](C)NC(=O)[C@H](N)Cc1ccccc1)C(=O)N[C@@H](C)C(=O)N[C@@H](Cc1ccc2ccccc2c1)C(N)=O` [L-Alaninamide,D-phenylalanyl-L-alanyl-L-tyrosyl-D-tryptophyl-L-lysyl-L-valyl-L-alanyl-3-(2-naphthalenyl)-(9CI)] (H-[dF]AY[dW]KVA[2Nal]-NH2), the Ki in test [2] came to 152 nM; in test [3] it was 1000 nM; in test [1] it was 6.1 nM.
Consider `C[C@@H](OCc1ccccc1)[C@@H]1NC(=O)[C@H](CCCCN)NC(=O)[C@@H](Cc2c[nH]c3ccccc23)NC(=O)[C@H](Cc2ccccc2)NC(=O)CCCCCNC1=O` [c[Ahx-Phe-D-Trp-Lys-Thr(Bzl)]] (cyclo([Ahx]F[dW]KT(Bn))), for which the Ki in test [2] was found to be 73 nM; in test [3], 183 nM; in test [1] it was 1000 nM.
`CC(C)[C@H](NC(=O)[C@H](CCCCN)NC(=O)[C@@H](Cc1c[nH]c2ccccc12)NC(=O)[C@H](Cc1ccc(O)cc1)NC(=O)[C@H](C)NC(=O)[C@H](N)Cc1ccc(Cl)cc1)C(=O)N[C@@H](C)C(=O)N[C@@H](Cc1ccc2ccccc2c1)C(N)=O` [CAS_150155-67-2] (H-[dPhe(4-Cl)]AY[dW]KVA[2Nal]-NH2): the Ki worked out at 143 nM in test [2], 1000 nM in test [3] and 22 nM in test [1].
On to `CC(C)[C@H](NC(=O)[C@H](CCCCN)NC(=O)[C@@H](Cc1c[nH]c2ccccc12)NC(=O)[C@H](Cc1ccc(O)cc1)NC(=O)[C@H](Cc1ccccc1)NC(=O)[C@H](N)Cc1ccccc1)C(=O)N[C@@H](Cc1ccccc1)C(=O)N[C@H](Cc1ccccc1)C(N)=O` [D-Phe-Phe-Tyr-D-Trp-Lys-Val-Phe-D-Phe-NH2] (H-[dF]FY[dW]KVF[dF]-NH2), for which the figures for the Ki in test [2], in test [3] and in test [1] were 38 nM, 1000 nM and above 10000 nM, respectively.
Take `CC(C)[C@H](NC(=O)[C@H](CCCCN)NC(=O)[C@@H](Cc1c[nH]c2ccccc12)NC(=O)[C@H](Cc1ccc(O)cc1)NC(=O)[C@H](Cc1ccc([N+](=O)[O-])cc1)NC(=O)[C@H](N)Cc1ccccc1)C(=O)N[C@@H](Cc1ccccc1)C(=O)N[C@H](C(N)=O)[C@@H](C)O` [BIM 23066] (H-[dF][Phe(4-NO2)]Y[dW]KVFT-NH2): the Ki amounted to 1.1 nM in test [2], 1000 nM in test [3] and 3.1 nM in test [1].
Consider `CC(C)[C@@H]1NC(=O)[C@H](CCCCN)NC(=O)[C@@H](Cc2c[nH]c3ccccc23)NC(=O)[C@H](Cc2ccc(O)cc2)NC(=O)CCSSC(C(=O)N[C@@H](Cc2ccccc2)C(N)=O)NC1=O` (stereo not given in full) [CAS_117580-24-2] ([Mpa]Y[dW]KV[X1]F-NH2; disulfide 1-6), for which the Ki was 133 nM in test [2], 1000 nM in test [3] and 6.1 nM in test [1].
`C[C@@H](O)[C@@H]1NC(=O)[C@H](CCCCN)NC(=O)[C@@H](Cc2c[nH]c3ccccc23)NC(=O)[C@H](Cc2c[nH]c3ccccc23)NC(=O)[C@H](Cc2ccccc2)NC(=O)CCCCCCNC(=O)[C@H](Cc2ccccc2)NC1=O` [L-362855] (cyclo([Ahp]FW[dW]KTF)): the Ki in test [2] worked out at 30 nM; in test [3], 1000 nM; in test [1], 29 nM.
`CC(C)[C@H](NC(=O)[C@H](CCCCN)NC(=O)[C@@H](Cc1c[nH]c2ccccc12)NC(=O)[C@H](Cc1ccc(O)cc1)NC(=O)[C@H](Cc1ccc(Cl)cc1)NC(=O)[C@H](N)Cc1ccccc1)C(=O)N[C@@H](Cc1ccccc1)C(=O)N[C@H](C(N)=O)[C@@H](C)O` [BIM 23057] (H-[dF][Phe(4-Cl)]Y[dW]KVFT-NH2): the Ki in test [2] came out at 4.8 nM; in test [3] it was 1000 nM; in test [1], 2.4 nM.
For the compound `CC[C@@H]1NC(=O)[C@H](CCCCN)NC(=O)[C@@H](Cc2c[nH]c3ccccc23)NC(=O)[C@H](Cc2ccc(O)cc2)NC(=O)[C@@H](NC(=O)[C@H](N)Cc2ccccc2)CSSC[C@@H](C(=O)N[C@H](C(N)=O)[C@@H](C)O)NC1=O` [D-Phe-L-Cys(1)-L-Tyr-D-Trp-L-Lys-L-Abu-L-Cys(1)-L-Thr-NH2], the Ki in test [2] is 13.5 nM; in test [3], 1000 nM; in test [1] it was 0.001 nM.
In the case of `C[C@@H](O)[C@H](NC(=O)[C@H](Cc1ccccc1)NC(=O)[C@@H](NC(=O)[C@H](CCCCN)NC(=O)[C@@H](Cc1c[nH]c2ccccc12)NC(=O)[C@H](Cc1ccc(O)cc1)NC(=O)[C@H](Cc1ccc(Cl)cc1)NC(=O)[C@H](N)Cc1ccccc1)[C@@H](C)O)C(N)=O` [BIM 23068] (H-[dF][Phe(4-Cl)]Y[dW]KTFT-NH2), the results for the Ki in test [2], in test [3] and in test [1] were 0.8 nM, 1000 nM and 0.15 nM, respectively.
The matching figures for `CC(C)[C@H](NC(=O)[C@H](CCCCN)NC(=O)[C@@H](Cc1c[nH]c2ccccc12)NC(=O)[C@H](Cc1ccc(O)cc1)NC(=O)[C@H](Cc1ccccc1)NC(=O)[C@H](N)Cc1ccccc1)C(=O)N[C@@H](Cc1ccccc1)C(=O)N[C@H](C(N)=O)[C@@H](C)O` [BIM-23058] (H-[dF]FY[dW]KVFT-NH2): 0.04 nM, 1000 nM and 46 nM.
Take `CC(C)[C@H](NC(=O)[C@H](CCCCN)NC(=O)[C@@H](Cc1c[nH]c2ccccc12)NC(=O)[C@H](Cc1ccc(O)cc1)NC(=O)[C@H](Cc1ccc(Cl)cc1)NC(=O)[C@@H](N)Cc1ccccc1)C(=O)N[C@@H](Cc1ccccc1)C(=O)N[C@@H](Cc1ccc2ccccc2c1)C(N)=O` [BIM 23063] (H-F[Phe(4-Cl)]Y[dW]KVF[2Nal]-NH2): the Ki in test [2] amounted to 81 nM; in test [3], 1000 nM; in test [1], 248 nM.
As for `CC(O)C1NC(=O)C(CCCCN)NC(=O)C(Cc2c[nH]c3ccccc23)NC(=O)C(Cc2ccccc2)NC(=O)C(NC(=O)C(N)Cc2ccccc2)CSSCC(C(=O)NCc2cccc3ccccc23)NC1=O` (stereo not given) [EC5-21] (H-FCFWKTC-{NH(1-naphthylmethyl)}; disulfide 2-7; configuration not given here), the Ki turned out to be 20 nM in test [2], 382 nM in test [3] and 4.8 nM in test [1].
As to `CC(C)[C@@H]1NC(=O)[C@H](CCCCN)NC(=O)[C@@H](Cc2c[nH]c3ccccc23)NC(=O)[C@H](Cc2ccc(O)cc2)NC(=O)[C@@H](NC(=O)[C@H](N)Cc2ccc3ccccc3c2)CSSC[C@@H](C(=O)N[C@@H](Cc2ccc3ccccc3c2)C(N)=O)NC1=O` [BIM 23042] (H-[d2Nal]CY[dW]KVC[2Nal]-NH2; disulfide 2-7), the figures for the Ki in test [2], in test [3] and in test [1] were 207 nM, 1000 nM and 4.2 nM, respectively.
For `C[C@@H](O)[C@@H]1NC(=O)[C@H](CCCCN)NC(=O)[C@@H](Cc2c[nH]c3ccccc23)NC(=O)[C@H](Cc2ccc(Cl)cc2)NC(=O)[C@H](Cc2ccccc2)NC(=O)CCCCCCNC(=O)[C@H](Cc2ccccc2)NC1=O` [L-362862] (cyclo([Ahp]F[Phe(4-Cl)][dW]KTF)) the same measures were 24 nM, 580 nM and 8.3 nM.
On to `C[C@@H](O)[C@@H]1NC(=O)[C@H](Cc2ccccc2)NC(=O)[C@H]([C@@H](C)O)NC(=O)[C@H](CCCCN)NC(=O)[C@@H](Cc2c[nH]c3ccccc23)NC(=O)[C@H](Cc2ccccc2)NC(=O)[C@H](Cc2ccc(Cl)cc2)NC(=O)[C@H](CC(N)=O)NC(=O)[C@H](CCCCN)NC(=O)[C@@H](N)CSSC[C@@H](C(=O)O)NC(=O)[C@H](CO)NC1=O` [EC5-21] (H-CKN[Phe(4-Cl)]F[dW]KTFTSC-OH; disulfide 1-12), for which the Ki was 2.1 nM in test [2] and 0.005 nM in test [1].
For `CC(O)[C@H](CO)NC(=O)[C@@H]1CSSCC(NC(=O)C(N)Cc2ccccc2)C(=O)N[C@H](Cc2ccccc2)C(=O)N[C@H](Cc2c[nH]c3ccccc23)C(=O)N[C@H](CCCCN)C(=O)N[C@H](C(C)O)C(=O)N1` (stereo not given in full) (H-[ξF][ξC][dF][dW][dK][dThr(3ξ)]C-X2; disulfide 2-7), the Ki in test [2] stood at 3 nM; in test [1], 2.4 nM.
